Experimental data taken from ChEMBL document CHEMBL1122404, “Khellin analogues. 1. General topological requirements for lipid-altering activity in furochromones” (1983).

Assays:
[1] = Total Serum lipoprotein cholesterol alteration by the compound at 50 mg/kg/day dose in normocholesterolemic Male S.E.A. Japanese quail with 5-7 weeks of age
[2] = Serum lipoprotein (VLDL+LDL) cholesterol alteration by the compound at 50 mg/kg/day dose in normocholesterolemic Male S.E.A. Japanese quail with 5-7 weeks of age; assay type: functional, Coturnix
[3] = Serum high density lipoprotein (HDL) cholesterol alteration by the compound at 50 mg/kg/day dose in normocholesterolemic Male S.E.A. Japanese quail with 5-7 weeks of age; assay type: functional, Coturnix

SMILES	T/C [1]	T/C [2]	T/C [3]
COc1c2c(c(OC)c3c(=O)cc(C)oc13)CCO2	1.07	0.74	1.17
COc1c2occc2c(OC)c2c(=O)cc(CN(C)C)oc12	0.82	0.37	0.92
COc1c2occc2c(OC)c2c(=O)cc(C(C)C)oc12	1.17	0.49	1.4
Cc1cc(=O)c2cc3ccoc3cc2o1	1.01	0.84	1.05
COc1c2occc2c(OC)c2c(=O)ccoc12	1.15	0.42	1.36
COc1c2c(c(OC)c3occc13)OC(C)CC2=O (stereo unspecified)	1.24	0.55	1.45
COCc1cc(=O)c2c(OC)c3ccoc3c(OC)c2o1	1.35	0.57	1.63
COc1c2occc2c(OC)c2c(=O)cc(CSc3ccccc3)oc12	1.09	0.43	1.33
COc1c2occc2cc2c(=O)cc(C)oc12	1.09	0.77	1.19
COc1c2occc2c(OC)c2c(=O)cc(C)oc12 [KHELLIN]	1.21	0.37	1.46
COc1c2occc2c(OC)c2c(=O)cc(CSC)oc12 [TIMEFURONE]	1.36	0.47	1.68
COc1c2ccoc2cc2oc(C)cc(=O)c12 [VISNAGIN]	1.21	0.51	1.42
